Results on 65 compounds are retold here after patent publication US12195490B2, “STRAD-binding agents and uses thereof” (The Regents of the University of California, priority 2020, dated 2025).

The test relates to ACHN cell line. As to the kind of experiment: drug screen of the SelleckChem kinase inhibitor library with and without 5 uM SU-329, Cell-Titer Glo after 5 days. The test is classed as cell-based. The following applies: kinase inhibitor at 200 nM with and without 5 uM SU329; ACHN cell line; 5 days; Cell-Titer Glo.

Molecules are shown by their SMILES. Counter-ions that a name gives are not always drawn.

For `CO[C@@H](C(=O)N1Cc2[nH]nc(NC(=O)c3ccc(N4CCN(C)CC4)cc3)c2C1)c1ccccc1` [Danusertib (PHA-739358)], the log2fc is −0.1537. With `O=c1ccc2ccc(O)c(O)c2o1` [Daphnetin], the log2fc is reported as 0.08794.

Compound `Cc1nc(Nc2ncc(C(=O)Nc3c(C)cccc3Cl)s2)cc(N2CCN(CCO)CC2)n1` [Dasatinib, dasatinib, reference compound] registered a log2fc of −0.196. As for `CCC[C@H](NC(=O)/C(C#N)=C/c1cccc(Br)n1)c1ccccc1` [Degrasyn (WP1130)], the figure is −0.132; as for `CCc1cnn2c(NCc3ccc[n+]([O-])c3)cc(N3CCCC[C@H]3CCO)nc12` [Dinaciclib (SCH727965)], 1.402. In the case of `Cc1ccc(-n2nc(C(C)(C)C)cc2NC(=O)Nc2ccc(OCCN3CCOCC3)c3ccccc23)cc1` [Doramapimod (BIRB 796)], the log2fc is recorded as −0.5477. `CC(O)C(=O)O.CC(O)C(=O)O.CN1CCN(c2ccc3nc(-c4c(N)c5c(F)cccc5[nH]c4=O)[nH]c3c2)CC1` [Dovitinib (TKI-258) Dilactic Acid] registered a log2fc of −0.3598. The compound `CN1CCN(c2ccc3nc(-c4c(N)c5c(F)cccc5[nH]c4=O)[nH]c3c2)CC1` [Dovitinib (TKI-258, CHIR-258)] displayed a log2fc of 0.4746. As to `C[C@H](Nc1ncnc2nc[nH]c12)c1cc2cccc(Cl)c2c(=O)n1-c1ccccc1` [Duvelisib (IPI-145, INK1197)], the log2fc is recorded as −0.2128. Take `CCn1c2ccccc2c2cc(Nc3ccnc(NCCCN4CCOCC4)n3)ccc21` [EHop-016]: the log2fc came to 0.1156. Regarding `Cc1cc(Nc2cc(N3CCN(C)CC3)nc(/C=C/c3ccccc3)n2)n[nH]1` [ENMD-2076], the log2fc is given as 0.6799. In turn, `CCOc1cc(C(=O)N2CCC(N3CCN(C)CC3)CC2)ccc1Nc1ncc2c(n1)N(C1CCCC1)c1ccccc1C(=O)N2C` [ERK5-IN-1] came in with a log2fc of 0.1031.

As for `Cn1cc(C2=C(c3cn(C4CCN(Cc5ccccn5)CC4)c4ccccc34)C(=O)NC2=O)c2ccccc21` [Enzastaurin (LY317615)], the log2fc was 0.5814. For the compound `CO[C@H]1C[C@@H]2CC[C@@H](C)[C@@](O)(O2)C(=O)C(=O)N2CCCC[C@H]2C(=O)O[C@H]([C@H](C)C[C@@H]2CC[C@@H](OCCO)[C@H](OC)C2)CC(=O)[C@H](C)/C=C(\C)[C@@H](O)[C@@H](OC)C(=O)[C@H](C)C[C@H](C)/C=C/C=C/C=C/1C` [Everolimus (RAD001)], the log2fc is −1.364. For `CCn1c(=O)c(-c2ccc(-c3cncs3)cc2Cl)cc2cnc(Nc3ccc(N4CCN(C)CC4)cc3)nc21` [FRAX597], the log2fc is recorded as −0.0718. For the compound `Cl.O=S(=O)(c1cccc2cnccc12)N1CCCNCC1` [Fasudil (HA-1077) HCl], the log2fc turned out to be 0.1457.

For `Cc1cnc(Nc2ccc(OCCN3CCCC3)cc2)nc1Nc1cccc(S(=O)(=O)NC(C)(C)C)c1` [Fedratinib (SAR302503, TG101348)], the log2fc is given as −0.003444. Turning to `CCCCCCCCc1ccc(CCC(N)(CO)CO)cc1.Cl` [Fingolimod (FTY720) HCl], the log2fc worked out at 0.7051. In turn, `CN1CC[C@H](c2c(O)cc(O)c3c(=O)cc(-c4ccccc4Cl)oc23)[C@H](O)C1` [Flavopiridol (Alvocidib)] had a log2fc of 1.05. For `CN1CC[C@H](c2c(O)cc(O)c3c(=O)cc(-c4ccccc4Cl)oc23)[C@H](O)C1` [Flavopiridol HCl], the log2fc is on record as 1.693. For `COc1cc2c(Oc3ccc(NC(=O)C4(C(=O)Nc5ccc(F)cc5)CC4)cc3F)ccnc2cc1OCCCN1CCOCC1` [Foretinib (GSK1363089)], the log2fc is on record as −0.1359. Compound `COc1cc(Nc2ncc(F)c(Nc3ccc4c(n3)N(COP(=O)(O)O)C(=O)C(C)(C)O4)n2)cc(OC)c1OC` [Fostamatinib (R788)] gave a log2fc of 0.7242. Take `OCCn1cc(-c2ccc3c(c2)CC/C3=N\O)c(-c2ccncc2)n1` [GDC-0879]: the log2fc was found to be 0.3592. With `CNc1nc(Nc2cn(C(C)(C)C#N)nc2C)ncc1C(F)(F)F` [GNE-0877], the log2fc is recorded as 0.3098. `CNc1nc(Nc2cnn([C@H]3CCN(C4COC4)C[C@@H]3F)c2Cl)ncc1C(F)(F)F` [GNE-9605] had a log2fc of 0.4092.

Turning to `NC(=O)c1cccc(-c2cc(Nc3ccc(OC(F)(F)F)cc3)ncn2)c1` [GNF-2], the log2fc is 0.1337. As for `CC1=C(C(=O)Nc2cc3cn[nH]c3cc2F)C(c2ccc(C(F)(F)F)cc2)CC(=O)N1` (centres unmarked) [GSK429286A], the figure is −0.03939; as for `C[C@@H](Oc1cc(-n2cnc3ccc(CN4CCN(C)CC4)cc32)sc1C(N)=O)c1ccccc1C(F)(F)F` [GSK461364], 0.9925; as for `O=C(O)c1ccc(-c2c[nH]c3ncc(-c4ccccc4)cc23)cc1C1CCCC1` [GSK650394], 0.3205. As to `CCn1c(-c2nonc2N)nc2c(C#CC(C)(C)O)ncc(OC[C@H]3CCCNC3)c21` [GSK690693], the log2fc is listed as −0.5999. For `CNC(=O)c1c(F)cccc1Nc1nc(Nc2cc3c(cc2OC)CCN3C(=O)CN(C)C)nc2[nH]ccc12` [GSK1838705A], the log2fc is recorded as −0.03081.

The compound `CCc1cc(Nc2nccc(-c3c(-c4ccc(OC)c(C(=O)Nc5c(F)cccc5F)c4)nc4ccccn34)n2)c(OC)cc1N1CCC(N2CCN(S(C)(=O)=O)CC2)CC1` [GSK1904529A] yielded a log2fc of 0.6211. `CNc1nc(-c2ccc3c(N)n[nH]c3c2)cc(N2C[C@@H](C(=O)NC3CCCCC3)CC[C@H]2C)n1` [GSK2334470]: the log2fc was −1.111. In turn, `O=C1Nc2ccc(I)cc2/C1=C/c1cc(Br)c(O)c(Br)c1` [GW5074] had a log2fc of 0.4071.

In the case of `Cn1cc(/C=C2\C(=O)Nc3cccnc32)c2ccccc21` [GW441756], the log2fc is −0.09333. `Cc1cc(Nc2cc(CN3CCOCC3)c3nc(C)c(Cc4ccc(Cl)cc4F)n3n2)n[nH]1` [Gandotinib (LY2784544)] gave a log2fc of 1.04. Consider `COc1cc2ncnc(Nc3ccc(F)c(Cl)c3)c2cc1OCCCN1CCOCC1` [Gefitinib (ZD1839)], for which the log2fc is on record as 0.4905. `O=c1c(-c2ccc(O)cc2)coc2cc(O)cc(O)c12` [Genistein]: the log2fc is 0.05262.

`COc1ccc2c(c1)c(C1=C(c3c[nH]c4ccccc34)C(=O)NC1=O)cn2CCCN(C)C` [Go 6983] showed a log2fc of 0.08992. In turn, `CN1CCN(C2CCN(C(=O)Nc3cc(Oc4ccc(NC(=O)C5(C(=O)Nc6ccc(F)cc6)CC5)c(F)c4)ccn3)CC2)CC1` [Golvatinib (E7050)] yielded a log2fc of −0.1341. Regarding `Cl.Cl.O=S(=O)(NCCNC/C=C/c1ccc(Br)cc1)c1cccc2cnccc12` [H 89 2HCl], the log2fc is −0.01404. The same measure for `COc1ccc(S(=O)(=O)N(C(C)=O)c2ccccc2/C=C/c2cc[n+]([O-])cc2)cc1` [HMN-214]: 0.2477; for `CCOC(=O)c1cnc2ccc(-c3cncc(NS(=O)(=O)c4ccccc4)c3)cn12` [HS-173]: 0.4717; for `Cc1nc(Nc2cnn(C3CCNCC3)c2)nc2c1N(C)C(=O)c1cc3ccccc3cc1N2C` [HTH-01-015]: 0.3141. `CCS(=O)(=O)Nc1ccc2c(c1)/C(=C(/Nc1ccc(CN3CCCCC3)cc1)c1ccccc1)C(=O)N2` [Hesperadin] showed a log2fc of 0.1006.

As for `C=CCc1ccc(O)c(-c2ccc(O)c(CC=C)c2)c1` [Honokiol], the log2fc amounted to 0.09484.

As for `O=C(c1ccc(Nc2nccc(-c3cc4ccccc4s3)n2)cc1)N1CCC(N2CCCC2)CC1` [IKK-16 (IKK Inhibitor VII)], the log2fc is recorded as −0.1183.

Compound `O=C(Nc1cc(C(F)(F)F)cc(C(F)(F)F)c1)c1cc(Cl)ccc1O` [IMD 0354] registered a log2fc of 0.2086. For `CC(C)n1nc(-c2ccc3oc(N)nc3c2)c2c(N)ncnc21` [INK 128 (MLN0128)], the log2fc is −0.2018. Take `Oc1ccc2ccccc2c1SSc1c(O)ccc2ccccc12` [IPA-3]: the log2fc worked out at 0.5168.

In turn, `C=CC(=O)N1CCC[C@@H](n2nc(-c3ccc(Oc4ccccc4)cc3)c3c(N)ncnc32)C1` [Ibrutinib (PCI-32765)] showed a log2fc of 1.289. The compound `C#Cc1cccc(Nc2ncnc3cc4c(cc23)OCCOCCOCCO4)c1` [Icotinib] showed a log2fc of 0.1182. The same measure for `CC[C@H](Nc1ncnc2[nH]cnc12)c1nc2cccc(F)c2c(=O)n1-c1ccccc1` [Idelalisib (CAL-101, GS-1101)]: 0.09838; for `Cc1ccc(NC(=O)c2ccc(CN3CCN(C)CC3)cc2)cc1Nc1nccc(-c2cccnc2)n1` [Imatinib Mesylate (STI571), imatinib, reference compound]: 0.1536. Compound `O=C1Nc2ccccc2/C1=C1/Nc2ccccc2C1=O` [Indirubin] came in with a log2fc of −1.247. As for `CC(C)NC[C@@H](C(=O)N1CCN(c2ncnc3c2[C@H](C)C[C@H]3O)CC1)c1ccc(Cl)cc1` [Ipatasertib (GDC-0068)], the log2fc was −0.5082. Compound `Nc1nc(Nc2ccc(S(N)(=O)=O)cc2)nn1C(=O)c1c(F)cccc1F` [JNJ-7706621] had a log2fc of 0.3857.

Turning to `Cn1cc(-c2ccc3nnc(C(F)(F)c4ccc5ncccc5c4)n3n2)cn1` [JNJ-38877605], the log2fc is recorded as 0.02907. Turning to `N#Cc1c(NC(=O)c2cccc3ccccc23)sc2c1CCCC2` [JNK Inhibitor IX], the log2fc turned out to be 0.1814. The compound `Cc1cc(NC(=O)c2cccc(NC(=O)/C=C/CN(C)C)c2)ccc1Nc1nccc(-c2cccnc2)n1` [JNK-IN-8] came in with a log2fc of 0.5696.

For the compound `COc1ccc(S(=O)(=O)N(CCO)c2ccccc2CN(C)C/C=C/c2ccc(Cl)cc2)cc1.O=P(O)(O)O` [KN-93 Phosphate], the log2fc was 0.02491. `CCCNC(=O)Nc1ccc(Oc2ncnc3cc(OC)c(OC)cc23)cc1Cl` [KRN 633]: the log2fc is recorded as 0.02524. As for `O=c1cc(-c2cccc3c2Sc2ccccc2S3)oc(N2CCOCC2)c1` [KU-55933 (ATM Kinase Inhibitor)], the figure is 0.3053; as for `C[C@@H]1CN(CC(=O)Nc2ccc3c(c2)Cc2cccc(-c4cc(=O)cc(N5CCOCC5)o4)c2S3)C[C@H](C)O1` [KU-60019], 0.886. `COc1ccc(-c2ccc3c(N4CCOCC4)nc(N4C[C@@H](C)O[C@@H](C)C4)nc3n2)cc1CO` [KU-0063794] returned a log2fc of −1.551.
